Assay results reported in US5780498A, “Endothelin receptor antagonists” (Ciba-Geigy Japan Limited, priority 1993, dated 1998).

Columns and labels:
[1] = molecular target: T1, ETB receptor (Sus scrofa, UniProt P35463); test: Endothelin (ET) receptor binding assay, ETB ([125I]ET-3 alone, porcine lung plasma membrane); conditions: for inhibition at 0.1 µM: 10^-7 M of the test compound, specific ETB binding; for Ki: from inhibition curves for the binding of [125I]ETs
T1 construct: The plasma membrane of porcine lung; from tissue; host or cells: porcine lung plasma membrane
T1 sequence (P35463 27-443): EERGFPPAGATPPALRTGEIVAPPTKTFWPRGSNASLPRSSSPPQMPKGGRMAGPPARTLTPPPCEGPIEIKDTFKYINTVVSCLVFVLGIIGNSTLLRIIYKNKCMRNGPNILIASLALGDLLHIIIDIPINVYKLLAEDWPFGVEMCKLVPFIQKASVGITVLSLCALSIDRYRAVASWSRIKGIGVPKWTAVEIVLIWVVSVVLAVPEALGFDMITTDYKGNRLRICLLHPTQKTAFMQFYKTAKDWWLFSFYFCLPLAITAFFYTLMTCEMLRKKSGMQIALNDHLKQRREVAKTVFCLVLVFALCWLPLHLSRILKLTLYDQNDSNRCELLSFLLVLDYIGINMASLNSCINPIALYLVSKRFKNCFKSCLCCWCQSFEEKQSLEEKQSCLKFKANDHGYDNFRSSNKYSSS
Procedure: (§1) Nonspecific binding is defined as membrane-associated radioactivity in the presence of saturating concentrations of ETs (100 nM). Nonspecific binding is subtracted from the total binding and the difference is defined as specific binding.

[2] = molecular target: T2, guinea pig trachea (Cavia porcellus, UniProt H0VTF3); test: Contraction of guinea pig trachea (inhibition of ET-3 induced contraction); conditions: ET-3 contraction; Krebs-Henseleit solution; 60 mM KCl reference standard; read-out: pA2 (converted)
T2 construct: The trachea which is isolated from male Hartley guinea pigs; from tissue; host or cells: guinea pig (Hartley) tracheal rings, epithelium removed
T2 sequence (H0VTF3 27-415): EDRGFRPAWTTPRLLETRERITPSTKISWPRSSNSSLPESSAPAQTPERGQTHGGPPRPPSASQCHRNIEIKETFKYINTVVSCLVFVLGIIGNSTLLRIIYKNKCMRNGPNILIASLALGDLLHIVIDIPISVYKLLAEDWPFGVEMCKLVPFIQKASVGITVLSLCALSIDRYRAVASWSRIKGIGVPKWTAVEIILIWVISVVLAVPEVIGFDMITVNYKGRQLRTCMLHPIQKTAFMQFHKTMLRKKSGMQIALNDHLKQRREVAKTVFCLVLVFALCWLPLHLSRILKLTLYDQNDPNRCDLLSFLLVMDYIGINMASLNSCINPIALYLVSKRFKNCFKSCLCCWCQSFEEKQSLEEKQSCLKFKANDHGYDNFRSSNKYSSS
Procedure: Contraction assays are performed basically according to the published method (M. Takai et al. Biochem. Biophys. Res. Commun. 184, 953-959, 1992). The trachea which is isolated from male Hartley guinea pigs weighing 350-500 g, is cut into rings of approximately 2 mm length after removal of the adherent fat and connective tissues. The epithelium is removed mechanically from the rings. The preparations are placed in organ baths containing a Krebs-Henseleit or Tyrode solution at 37° C., pH 7.4 bubbled with 95% O2 and 5% CO2. Tension is measured isometrically via a force-displacement transducer (Nikhon Kohden, Tokyo, TB-612T) under an initial tension of 1 g. Concentration-response curves for ET-3 are obtained by its cumulative application. Inhibitory activities of given compounds are investigated by the addition of their DMSO solutions into the baths 10 to 40 min before the addition of ET-3. These activities are evaluated numerically by pA2 values which are negative logarithms of compound concentrations inducing a shift of the ET-3 concentration-effective curves toward the 2-fold higher concentration range of ET-3. Contraction produced by 60 mM KCl or 10 μM carbachol is used as a reference standard.

[3] = molecular target: T3, ETA receptor (Sus scrofa, UniProt Q29010); test: Endothelin (ET) receptor binding assay, ETA ([125I]ET-1 in the presence of 1 nM nonlabeled ET-3, porcine lung plasma membrane); conditions: for inhibition at 10 µM: 10^-5 M of the test compound, specific ETA binding; for Ki: from inhibition curves for the binding of [125I]ETs
T3 construct: The plasma membrane of porcine lung; from tissue; host or cells: porcine lung plasma membrane
T3 sequence (Q29010 21-427): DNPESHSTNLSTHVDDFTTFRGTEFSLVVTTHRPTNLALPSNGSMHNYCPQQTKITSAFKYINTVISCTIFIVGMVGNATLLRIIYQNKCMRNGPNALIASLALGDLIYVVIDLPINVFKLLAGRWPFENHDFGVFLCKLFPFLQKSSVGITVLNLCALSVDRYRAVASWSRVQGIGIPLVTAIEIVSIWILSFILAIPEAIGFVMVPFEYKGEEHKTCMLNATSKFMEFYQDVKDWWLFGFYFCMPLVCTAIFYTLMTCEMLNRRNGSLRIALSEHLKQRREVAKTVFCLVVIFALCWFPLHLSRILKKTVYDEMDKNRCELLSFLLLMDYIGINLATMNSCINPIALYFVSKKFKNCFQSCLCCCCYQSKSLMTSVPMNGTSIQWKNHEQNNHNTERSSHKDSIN
Procedure: as §1

Row | Structure (SMILES) | inhibition at 0.1 µM [1] | Kb [2] | inhibition at 10 µM [3] | Ki [1] | Ki [3]
1 | Cc1cc(C)cc(C(=O)N(C)[C@H](Cc2ccccc2)C(=O)N[C@@H](Cc2c[nH]c3ccccc23)C(=O)O)c1 [Example 1, N-(3,5-Dimethylbenzoyl)-N-methyl-(D)-phenylalanyl-(L)-tryptophan] | 55% | 501 nM | 37% |  | 
2 | Cc1cc(C)cc(C(=O)N(C)[C@H](Cc2ccc(-c3ccccc3)cc2)C(=O)N[C@@H](Cc2c[nH]c3ccccc23)c2nn[nH]n2)c1 [Example 4, 5-[N-(3,5-dimethylbenzoyl)-N-methyl-(D)-(4-phenylphenyl)alanyl-(L)-tryptophanyl]-1H-tetrazole] | 93% |  | 74% |  | 
3 | Cc1cc(C)cc(C(=O)N(C)[C@H](Cc2ccc(-c3ccccc3)cc2)C(=O)NC(Cc2csc3ccccc23)C(=O)O)c1 (some centres unmarked) [Example 7] | 87% |  | 77% |  | 
4 | Cc1cc(C)cc(C(=O)N(C)[C@H](Cc2ccc(-c3ccccc3)cc2)C(=O)N(C)[C@@H](Cc2c[nH]c3ccccc23)C(=O)O)c1 [Example 12, N-(3,5-Dimethylbenzoyl)-N-methyl-(D)-(4-phenylphenyl)alanyl-N-methyl-(L)-tryptophan] | 91% |  | 36% |  | 
5 | Cc1cc(C)cc(C(=O)N(C)[C@H](Cc2ccc(-c3ccccc3)cc2)C(=O)N[C@@H](Cc2c[nH]c3ccccc23)C(=O)O)c1 [Example 55, N-(3,5-Dimethylbenzoyl)-N-methyl-(D)-(4-phenylphenyl)alanyl-(L)-tryptophan] | 100% |  | 94% | 1 nM | 440 nM
6 | Cc1cc(C)cc(C(=O)N(C)C(C(=O)N[C@@H](Cc2c[nH]c3ccccc23)C(=O)O)C(c2ccccc2)c2ccccc2)c1 (some centres unmarked) [Example 57, N-(3,5-dimethylbenzoyl)-N-methyl-(D,L)-3-(diphenyl)alanyl-(L)-tryptophan] | 95% |  | 34% |  | 
7 | COc1ccc(C[C@H](C(=O)N[C@@H](Cc2c[nH]c3ccccc23)C(=O)O)N(C)C(=O)c2cc(C)cc(C)c2)cc1 [Example 65, N-(3,5-dimethylbenzoyl)-N-methyl-O-methyl-(D)-tyrosyl-(L)-tryptophan] | 59% |  | 47% |  | 
8 | Cc1cc(C)cc(C(=O)N(C)[C@H](Cc2ccc(-c3ccccc3)cc2)C(=O)CC(Cc2c[nH]c3ccccc23)C(=O)O)c1 (some centres unmarked) [Example 84] | 70% |  | 46% |  | 
9 | Cc1cc(C)cc(C(=O)N(C)[C@H](Cc2ccc(-c3ccsc3)cc2)C(=O)N[C@@H](Cc2c[nH]c3ccccc23)C(=O)O)c1 [Example 91, N-(3,5-dimethylbenzoyl)-N-methyl-(D)-3-[4-(3-thienyl)phenyl]alanyl-(L)-tryptophan] | 100% |  | 100% | 0.23 nM | 54 nM
10 | Cc1cc(C)cc(C(=O)N(C)[C@H](Cc2ccc(-c3cccs3)cc2)C(=O)N[C@@H](Cc2c[nH]c3ccccc23)C(=O)O)c1 [Example 93, N-(3,5-dimethylbenzoyl)-N-methyl-(D)-3-[4-(2-thienyl)phenyl]alanyl-(L)-tryptophan] |  |  |  | 0.6 nM | 87 nM
11 | Cc1cc(C)cc(C(=O)N(C)[C@H](Cc2ccc(-c3ccno3)cc2)C(=O)N[C@@H](Cc2c[nH]c3ccccc23)C(=O)O)c1 [Example 95, N-(3,5-dimethylbenzoyl)-N-methyl-(D)-3-[4-(5-isoxazolyl)phenyl]alanyl-(L)-tryptophan] | 98% |  | 98% | 0.21 nM | 45 nM
